Data published in patent US20110124888A1, “STYRYLBENZOFURAN DERIVATIVES AS INHIBITORS FOR BETA-AMYLOID FIBRIL FORMATION AND PREPARATION METHOD THEREOF” (Korea Institute of Science and Technology, priority 2008, published 2011).
Counter-ions that a name gives are not always drawn. Like-named read-outs stand apart in the source and are kept apart here. Values belong to the compound of their own block, whether it stands above or below them.

Target: T1, beta-amyloid 42 (Aβ42) (Homo sapiens, UniProt P05067)
T1 construct: Beta-amyloid 42 (Aβ42) was dissolved in dimethylsulfoxide (DMSO)
T1 sequence (P05067 672-713 limits assumed): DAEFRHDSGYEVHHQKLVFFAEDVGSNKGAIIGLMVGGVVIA
Assay: Inhibitory effect on the formation of beta-amyloid fibrils in vitro (ThT fluorescence assay)
Type: biochemical
Settings: for inhibition at 10 µM: read-out: % Inhibition (10 μM); for IC50: In vitro ThT analysis (Aβ42: 25 μM); for % inhibition against the beta-amyloid 42 formation compared with curcumin: Tables 1 to 6, relative to curcumin
Method: In order to investigate the inhibitory effect on the formation of beta-amyloid fibrils, the inventive compounds were examined as follows:
Beta-amyloid 42 (Aβ42) was dissolved in dimethylsulfoxide (DMSO) to form a […] Aβ42 stock solution. In addition, ThT (thioflavin T) was dissolved in distilled water to a concentration of 1 mM and subsequently diluted with 50 mM glycin buffer (pH 8.5) to yield a 5 μM ThT stock solution.
45 μL of PBS (phosphate buffer saline, pH 7.4) was added to each of a 96 well fluorescence microplate (white, F-bottom). 5 μL of the 250 μM Aβ42 stock solution was added to each well. The final concentration of each compound obtained in Examples was in a range of 10 to 0.001 μM by adding 2 μL of a solution, which is prepared by dissolving the subject compounds obtained in Examples in DMSO, to each well. At this time, the final concentration of Aβ42 in each well was 25 μM. The plate was then incubated at room temperature for 1 hr, and 150 μL of the 5 μM ThT stock solution was added to each well.
The fluorescence intensity of each well was determined with the multi label fluorescence counter (LS-55 Luminescence spectrometer, Perkin Elmer) at an excitation wavelength of 450 nm (excitation slit width: 10 nm) and an emission wavelength of 482 nm (emission slit width: 10 nm), while adjusting counting time to 1 second. The control group was prepared by adding PBS solution, Aβ42 and DMSO, without adding the inventive compound. % Inhibition on the formation of beta-amyloid fibrils was calculated in accordance with the following equation and IC5O was calculated by using GraphPad Prism version 4.03 Program.
% Inhibition=[1−(C−D)/(A−B)]×100 Equation 1%
A (control group): fluorescence intensity in a group treated with PBS solution, Aβ42, and DMSO
B (blank): fluorescence intensity in a group treated with PBS solution and DMSO
C (experimental group): fluorescence intensity in a group treated with PBS solution, Aβ42, DMSO, and the inventive compound
D (compensation value to the experimental group): fluorescence intensity in a group treated with PBS solution, DMSO, and the inventive compound

[1] = 10 μM compound, Aβ42 25 μM, experiment of Table 5
[2] = 10 μM compound, Aβ42 25 μM, experiment of Table 6
[3] = 10 μM compound, Aβ42 25 μM, experiment of Table 3
[4] = 10 μM compound, Aβ42 25 μM, experiment of Table 2
[5] = 10 μM compound, Aβ42 25 μM, experiment of Table 7

inhibition at 10 µM [1]: 63.3%
IC50 (experiment of Table 5): 1050 nM
% inhibition against the beta-amyloid 42 formation compared with curcumin: superior % inhibition
SMILES: CCN(CC)c1ccc(C=Cc2cc3cc(I)ccc3o2)cc1 [Compound 47, 5-iodo-2-(4-diethylaminostyryl)benzofuran]

inhibition at 10 µM [3]: 62.8%
SMILES: CCN(CC)c1ccc(C=Cc2cc3ccc(OC)cc3o2)cc1 [Compound 57, 6-methoxy-2-(4-diethylaminostyryl)benzofuran]

inhibition at 10 µM [1]: 53.5%
SMILES: CNc1ccc(C=Cc2cc3cc(OCCOCCOCCF)ccc3o2)cc1 [Compound 45, 5-(2-(2-(2-fluoroethoxy)ethoxy)ethoxy)-2-(4-methylaminostyryl)benzofuran]

inhibition at 10 µM [1]: 61.9%
SMILES: CNc1ccc(C=Cc2cc3ccc(O)cc3o2)cc1 [Compound 68, 6-hydroxy-2-(4-methylaminostyryl)benzofuran]

inhibition at 10 µM [3]: 57.2%
SMILES: COc1ccc(C=Cc2cc3ccc(OC)cc3o2)cc1 [Compound 58, 6-methoxy-2-(4-methoxystyryl)benzofuran]

inhibition at 10 µM [1]: 60.2%
SMILES: Nc1ccc(C=Cc2cc3ccc(O)cc3o2)cc1 [Compound 67, 6-hydroxy-2-(4-aminostyryl)benzofuran]

inhibition at 10 µM [1]: 29.2%
SMILES: COc1cc2cc(C=Cc3ccc(N(C)C)cc3)oc2cc1OC [Compound 51, 5,6-dimethoxy-2-(4-dimethylaminostyryl)benzofuran]

inhibition at 10 µM [4]: 51.8%
IC50 (experiment of Table 2): > 100000 nM
SMILES: COc1ccc(C=Cc2cc3cc(Cl)ccc3o2)cc1 [Compound 33, 5-chloro-2-(4-methoxystyryl)benzofuran]

inhibition at 10 µM [4]: 81.6%
IC50 (experiment of Table 2): 1300 nM
% inhibition against the beta-amyloid 42 formation compared with curcumin: superior % inhibition
SMILES: CCN(CC)c1ccc(C=Cc2cc3cc(O)ccc3o2)cc1 [Compound 56, 5-hydroxy-2-(4-diethylaminostyryl)benzofuran]

inhibition at 10 µM [4]: 67.9%
IC50 (experiment of Table 2): 707 nM
% inhibition against the beta-amyloid 42 formation compared with curcumin: superior % inhibition
SMILES: COc1ccc(C=Cc2cc3cc(OC)ccc3o2)cc1 [Compound 37, 5-methoxy-2-(4-methoxystyryl)benzofuran]

inhibition at 10 µM [2]: 74.1%
IC50 (experiment of Table 6): 661 nM
% inhibition against the beta-amyloid 42 formation compared with curcumin: superior % inhibition
SMILES: CNc1ccc(/C=C/c2cc3cc(OC)ccc3o2)cc1 [hydrochloride of Ex. 17]

inhibition at 10 µM [1]: 42.3%
SMILES: CCN(CC)c1ccc(C=Cc2cc3cc(OC)c(OC)cc3o2)cc1 [Compound 52, 5,6-dimethoxy-2-(4-diethylaminostyryl)benzofuran]

inhibition at 10 µM [4]: 81.1%
IC50 (experiment of Table 2): 1560 nM
SMILES: COc1ccc2oc(C=Cc3ccc(OC)c(OC)c3)cc2c1 [Compound 38, 5-methoxy-2-(3,4-dimethoxystyryl)benzofuran]

inhibition at 10 µM [4]: 69.4%
IC50 (experiment of Table 2): 10500 nM
SMILES: COc1ccc(C=Cc2cc3cc(C)ccc3o2)cc1OC [Compound 43, 5-methyl-2-(3,4-dimethoxystyryl)benzofuran]

inhibition at 10 µM [3]: 46.5%
SMILES: CNc1ccc(C=Cc2cc3ccc(C)cc3o2)cc1 [Compound 62, 6-methyl-2-(4-methylaminostyryl)benzofuran trifluoroacetate]

inhibition at 10 µM [2]: 62.9%
IC50 (experiment of Table 6): 1880 nM
% inhibition against the beta-amyloid 42 formation compared with curcumin: superior % inhibition
SMILES: COc1ccc2cc(/C=C/c3ccc(N(C)C)cc3)oc2c1 [hydrochloride of Ex. 9]

inhibition at 10 µM [2]: 74.2%
IC50 (experiment of Table 6): 1050 nM
% inhibition against the beta-amyloid 42 formation compared with curcumin: superior % inhibition
SMILES: CNc1ccc(C=Cc2cc3cc(I)ccc3o2)cc1OC [Compound 48, 5-iodo-2-(3-methoxy-4-methylaminostyryl)benzofuran]

inhibition at 10 µM [1]: 61.7%
SMILES: CNc1ccc(C=Cc2cc3ccc(OCCOCCOCCF)cc3o2)cc1 [Compound 66, 6-(2-(2-(2-fluoroethoxy)ethoxy)ethoxy)-2-(4-methylaminostyryl)benzofuran]

The remaining lines, values behind:

SMILES: CNc1ccc(C=Cc2cc3cc(Cl)ccc3o2)cc1 [Compound 30, 5-chloro-2-(4-methylaminostyryl)benzofuran]
inhibition at 10 µM [2]: 68.4%
IC50 (experiment of Table 6): 2170 nM
% inhibition against the beta-amyloid 42 formation compared with curcumin: superior % inhibition

SMILES: Cc1ccc2cc(C=Cc3ccc(N(C)C)cc3)oc2c1 [Compound 11, 6-methyl-2-(4-dimethylaminostyryl)benzofuran]
IC50 (experiment of Table 1): 3440 nM

SMILES: COc1ccc2oc(C=Cc3ccc(N)cc3)cc2c1 [Compound 16, 5-methoxy-2-(4-aminostyryl)benzofuran]
IC50 (experiment of Table 1): 820 nM

SMILES: CNc1ccc(C=Cc2cc3ccc(OC)cc3o2)cc1 [Compound 21, 6-methoxy-2-(4-methylaminostyryl)benzofuran]
IC50 (experiment of Table 1): 800 nM

SMILES: CNc1ccc(C=Cc2cc3cc(Cl)ccc3o2)cc1OC [Compound 32, 5-chloro-2-(3-methoxy-4-methylaminostyryl)benzofuran]
inhibition at 10 µM [1]: 47.6%

SMILES: Nc1ccc(C=Cc2cc3ccccc3o2)cc1 [Compound 24, 2-(4-aminostyryl)benzofuran trifluoroacetate]
inhibition at 10 µM: 70.7%

SMILES: CN(C)c1ccc(C=Cc2cc3ccc(I)cc3o2)cc1 [Compound 15, 6-iodo-2-(4-dimethylaminostyryl)benzofuran]
IC50 (experiment of Table 1): 2800 nM

SMILES: CN(C)c1ccc(C=Cc2cc3ccc(Br)cc3o2)cc1 [Compound 14, 6-bromo-2-(4-dimethylaminostyryl)benzofuran]
IC50 (experiment of Table 1): 1340 nM

SMILES: Nc1ccc(C=Cc2cc3cc(O)ccc3o2)cc1 [Compound 18, 5-hydroxy-2-(4-aminostyryl)benzofuran hydrochloride]
IC50 (experiment of Table 1): 2950 nM

SMILES: COc1cc(/C=C/C(=O)CC(=O)/C=C/c2ccc(O)c(OC)c2)ccc1O [curcumin, reference compound]
inhibition at 10 µM [4]: 92.1%
inhibition at 10 µM (10 μM compound, Aβ42 25 μM, experiment of Table 4): 79.7%
inhibition at 10 µM [1]: 67.8%
inhibition at 10 µM [2]: 98.1%
inhibition at 10 µM [5]: 76.4%
inhibition at 10 µM: 78.3%

SMILES: CN(C)c1ncc(/C=C/c2nc3ccccc3o2)s1 [Comparative Example 1, reference compound]
inhibition at 10 µM [5]: 63.4%
IC50 (experiment of Table 7): 3400 nM

SMILES: COc1ccc2oc(C=Cc3ccc(N(C)C)cc3)cc2c1 [Compound 2, 5-Methoxy-2-(4-dimethylaminostyryl)benzofuran]
IC50 (experiment of Table 1): 810 nM
